{"source": "paper PMC11589101", "about": "“Profiling the endocrine-disrupting properties of triazines, triazoles, and short-chain PFAS” (Toxicological Sciences, 2024)", "key": {"[1]": {"system": "steroidogenesis in H295R cells", "format": "cell-based, human", "settings": "for effect on steroid hormone levels compared with vehicle-treated controls: highest noncytotoxic exposure concentration", "method": "All experiments were performed using cells in passages 5 to 10. First, the highest noncytotoxic concentration (<10% decrease in viability) was determined for each compound with MTT assays. Next, the levels of 13 steroid hormones were determined in the medium after exposure of the H295R cells to the highest noncytotoxic concentration using LC-MS/MS. These concentrations were tested in triplicate (n = 3) in 3 independent experiments (N = 3), and all 9 samples were measured in LC-MS/MS. […] These dilution series were tested in 3 independent experiments (N = 3), with triplicate exposures in each of these experiments (n = 3). Supernatants of the triplicate exposures per experiment were pooled after the 48 h of exposure and the 3 pooled samples were measured with LC-MS/MS. This was done to keep the number of LC-MS/MS measurements manageable.\nThe exposure medium was prepared by diluting stock solutions 1,000× in the cell culture medium to obtain a final concentration of 0.1% of the solvent. Exposure was started by replacing cell culture medium with the exposure medium. […] On a separate quality control plate, cells were exposed to 10 μM forskolin (Sigma-Aldrich) and 1 μM prochloraz (Sigma-Aldrich) to serve as positive control for increased and decreased steroid hormone secretion, respectively. Exposure was started by replacing the culture medium in the cell culture plates with the exposure medium.\nAfter 48 h of exposure, the supernatant medium from each well was transferred to the wells of a clean 48-well plate, and that plate was stored at −80 °C for later steroid measurement. MTT assays were performed by adding 500 μl of 0.5 mg/ml MTT (3-(4,5-dimethylthiazol-2-yl)-2,5-diphenyltetrazolium bromide; Sigma-Aldrich) solution in medium to each well of the 24-well cell culture plate and incubating for 1 h at 37 °C with 5% CO2. After incubation, the MTT solution was discarded and 500 μl of DMSO was added to each well to lyse the cells and dissolve the formazan crystals. Plates were shaken at 700 rpm for 10 min and absorbance was measured at 560 nm wavelength.\nHormones were concentrated from supernatants by solid phase extraction using Bond Elut Plexa cartridges, 30 mg sorbent, 1.8 ml (Agilent Technologies, Santa Clara, CA, United States). The cartridges were conditioned with 1 ml of 0.5% formic acid in methanol, and subsequent addition of 1 ml of 0.5% formic acid in water. A mix of 100 μl of H295R medium sample in 1 ml of 2% formic acid in water and 50 μl of isotopically labeled internal standards mix (Table S1) was loaded on the cartridges. These were then washed with 1 ml of water followed by 1 ml of water–methanol mixture (70:30, v/v). Cartridges were dried by vacuum and the hormones were eluted with 700 μl of methanol into 96-well-deep well polypropylene plates. Eluates were evaporated to dryness during approximately 2 h in a refrigerated CentriVap vacuum concentrator and reconstituted in 150 μl of water–methanol mixture (1:1, v/v). Additionally, a serial 12-point dilution series of a mix of native steroid hormones was prepared to fit a calibration curve in order to quantify steroid concentrations.\nThe steroid hormones were separated prior to MS measurements on a Kinetex C18 LC Column (2.6 μm, 100 × 2.1 mm; Phenomenex, CA, United States) coupled to an Exion LC system (SCIEX, Framingham, MA, United States). The mobile phase consisted of 0.2 mM NH4F in water and pure methanol and was delivered at a flow rate of 0.6 ml/min in a gradient elution mode. The injection volume was 10 μl.\nThe LC-MS/MS raw data were processed using AB Sciex OS Analyst version 1.6.2 (SCIEX, Framingham, MA, United States) to calculate fold changes by dividing the measured hormone concentrations by the hormone concentrations in the vehicle controls. The fold changes were used to fit a concentration–response curve in GraphPad Prism using the same model as in the reporter gene assays, and the ECIR1.5 was estimated for each compound."}, "[2]": {"target": "human transthyretin (TTR) (Homo sapiens, UniProt P02766)", "assay": "FITC-T4 TTR-binding assay, initial (original) method", "settings": "initial method; 110 nM FITC-T4, 30 nM TTR", "method": "All incubations were performed at room temperature.\nFluorescence enhancement was determined for each well by subtracting its relative fluorescence units (RFU) before TTR addition from its RFUs after TTR addition. The resulting values were normalized to percentages of the vehicle control. A concentration–response curve was fitted through the data using the same model as in the reporter gene assays.\nAfter 15 min of incubation, fluorescence was measured and fluorescence enhancement was calculated by subtracting RFU without TTR from RFU with TTR. Further data analysis was similar to the screening assays."}}, "note": "Read-outs that look alike come from different tables or passages of the source."}
{"smiles": "CC(C)Nc1nc(N)nc(Cl)n1", "note": "[Deethyl-atrazine]", "values": [{"measurement": "effect on steroid hormone levels compared with vehicle-treated controls", "setting": "[1]; 48 h", "value": "increased levels of progestogens, androgens, estrogens, and corticosteroids"}]}
{"smiles": "CCNc1nc(Cl)nc(NC(C)C)n1", "note": "[Atrazine]", "values": [{"measurement": "11 deoxycorticosterone mean fold change", "setting": "[1]; H295R, concentration 0.3 uM", "value": 1.225, "unit": "fold change"}, {"measurement": "17aOH progesterone mean fold change", "setting": "[1]; H295R, concentration 0.3 uM", "value": 1.062, "unit": "fold change"}, {"measurement": "17b E2 mean fold change", "setting": "[1]; H295R, concentration 0.3 uM", "value": 1.11, "unit": "fold change"}, {"measurement": "E1 mean fold change", "setting": "[1]; H295R, concentration 0.3 uM", "value": 0.9324, "unit": "fold change"}, {"measurement": "androstenedione mean fold change", "setting": "[1]; H295R, concentration 0.3 uM", "value": 1.124, "unit": "fold change"}, {"measurement": "corticosterone mean fold change", "setting": "[1]; H295R, concentration 0.3 uM", "value": 1.264, "unit": "fold change"}, {"measurement": "cortisol mean fold change", "setting": "[1]; H295R, concentration 0.3 uM", "value": 1.18, "unit": "fold change"}, {"measurement": "testosterone mean fold change", "setting": "[1]; H295R, concentration 0.3 uM", "value": 1.092, "unit": "fold change"}, {"measurement": "11 deoxycorticosterone mean fold change", "setting": "[1]; H295R, concentration 1 uM", "value": 1.279, "unit": "fold change"}, {"measurement": "17aOH progesterone mean fold change", "setting": "[1]; H295R, concentration 1 uM", "value": 1.128, "unit": "fold change"}, {"measurement": "17b E2 mean fold change", "setting": "[1]; H295R, concentration 1 uM", "value": 1.2477, "unit": "fold change"}, {"measurement": "E1 mean fold change", "setting": "[1]; H295R, concentration 1 uM", "value": 1.144, "unit": "fold change"}, {"measurement": "androstenedione mean fold change", "setting": "[1]; H295R, concentration 1 uM", "value": 1.188, "unit": "fold change"}, {"measurement": "corticosterone mean fold change", "setting": "[1]; H295R, concentration 1 uM", "value": 1.609, "unit": "fold change"}, {"measurement": "cortisol mean fold change", "setting": "[1]; H295R, concentration 1 uM", "value": 1.21, "unit": "fold change"}, {"measurement": "testosterone mean fold change", "setting": "[1]; H295R, concentration 1 uM", "value": 1.129, "unit": "fold change"}, {"measurement": "11 deoxycorticosterone mean fold change", "setting": "[1]; H295R, concentration 3 uM", "value": 1.291, "unit": "fold change"}, {"measurement": "17aOH progesterone mean fold change", "setting": "[1]; H295R, concentration 3 uM", "value": 1.151, "unit": "fold change"}, {"measurement": "17b E2 mean fold change", "setting": "[1]; H295R, concentration 3 uM", "value": 1.487, "unit": "fold change"}, {"measurement": "E1 mean fold change", "setting": "[1]; H295R, concentration 3 uM", "value": 1.415, "unit": "fold change"}, {"measurement": "androstenedione mean fold change", "setting": "[1]; H295R, concentration 3 uM", "value": 1.193, "unit": "fold change"}, {"measurement": "corticosterone mean fold change", "setting": "[1]; H295R, concentration 3 uM", "value": 1.535, "unit": "fold change"}, {"measurement": "cortisol mean fold change", "setting": "[1]; H295R, concentration 3 uM", "value": 1.258, "unit": "fold change"}, {"measurement": "testosterone mean fold change", "setting": "[1]; H295R, concentration 3 uM", "value": 1.198, "unit": "fold change"}, {"measurement": "11 deoxycorticosterone mean fold change", "setting": "[1]; H295R, concentration 10 uM", "value": 1.493, "unit": "fold change"}, {"measurement": "17aOH progesterone mean fold change", "setting": "[1]; H295R, concentration 10 uM", "value": 1.43, "unit": "fold change"}, {"measurement": "17b E2 mean fold change", "setting": "[1]; H295R, concentration 10 uM", "value": 2.183, "unit": "fold change"}, {"measurement": "E1 mean fold change", "setting": "[1]; H295R, concentration 10 uM", "value": 2.232, "unit": "fold change"}, {"measurement": "androstenedione mean fold change", "setting": "[1]; H295R, concentration 10 uM", "value": 1.47, "unit": "fold change"}, {"measurement": "corticosterone mean fold change", "setting": "[1]; H295R, concentration 10 uM", "value": 2.296, "unit": "fold change"}, {"measurement": "cortisol mean fold change", "setting": "[1]; H295R, concentration 10 uM", "value": 1.583, "unit": "fold change"}, {"measurement": "testosterone mean fold change", "setting": "[1]; H295R, concentration 10 uM", "value": 1.47, "unit": "fold change"}, {"measurement": "11 deoxycorticosterone mean fold change", "setting": "[1]; H295R, concentration 30 uM", "value": 1.712, "unit": "fold change"}, {"measurement": "17aOH progesterone mean fold change", "setting": "[1]; H295R, concentration 30 uM", "value": 1.877, "unit": "fold change"}, {"measurement": "17b E2 mean fold change", "setting": "[1]; H295R, concentration 30 uM", "value": 2.732, "unit": "fold change"}, {"measurement": "E1 mean fold change", "setting": "[1]; H295R, concentration 30 uM", "value": 3.048, "unit": "fold change"}, {"measurement": "androstenedione mean fold change", "setting": "[1]; H295R, concentration 30 uM", "value": 1.542, "unit": "fold change"}, {"measurement": "corticosterone mean fold change", "setting": "[1]; H295R, concentration 30 uM", "value": 2.489, "unit": "fold change"}, {"measurement": "cortisol mean fold change", "setting": "[1]; H295R, concentration 30 uM", "value": 1.7, "unit": "fold change"}, {"measurement": "testosterone mean fold change", "setting": "[1]; H295R, concentration 30 uM", "value": 1.645, "unit": "fold change"}, {"measurement": "11 deoxycorticosterone mean fold change", "setting": "[1]; H295R, concentration 100 uM", "value": 2.107, "unit": "fold change"}, {"measurement": "17aOH progesterone mean fold change", "setting": "[1]; H295R, concentration 100 uM", "value": 2.139, "unit": "fold change"}, {"measurement": "17b E2 mean fold change", "setting": "[1]; H295R, concentration 100 uM", "value": 2.968, "unit": "fold change"}, {"measurement": "E1 mean fold change", "setting": "[1]; H295R, concentration 100 uM", "value": 3.994, "unit": "fold change"}, {"measurement": "androstenedione mean fold change", "setting": "[1]; H295R, concentration 100 uM", "value": 1.612, "unit": "fold change"}, {"measurement": "corticosterone mean fold change", "setting": "[1]; H295R, concentration 100 uM", "value": 3.324, "unit": "fold change"}, {"measurement": "cortisol mean fold change", "setting": "[1]; H295R, concentration 100 uM", "value": 2.203, "unit": "fold change"}, {"measurement": "testosterone mean fold change", "setting": "[1]; H295R, concentration 100 uM", "value": 1.74, "unit": "fold change"}, {"measurement": "effect on steroid hormone levels compared with vehicle-treated controls", "setting": "[1]; 48 h", "value": "increased levels of progestogens, androgens, estrogens, and corticosteroids"}]}
{"smiles": "CC(C)(C)[C@@H](O)[C@@H](Cc1ccc(Cl)cc1)n1cncn1", "note": "(racemic) [Paclobutrazol]", "values": [{"measurement": "increased levels of progesterone and 17α-OH-progesterone compared with vehicle-treated controls", "setting": "[1]; H295R, 48 h", "value": "up to 3.5 fold"}, {"measurement": "effect on steroid hormone levels compared with vehicle-treated controls", "setting": "[1]; 48 h", "value": "increased levels of progesterone and decreased levels of androgens, estrogens, and corticosteroids"}]}
{"smiles": "NC(Cc1cc(I)c(Oc2cc(I)c(O)c(I)c2)c(I)c1)C(=O)O", "note": "(centres unmarked) [T4, thyroxine, reference compound]", "values": [{"measurement": "IC10 competing with FITC-T4 for binding to TTR", "setting": "[2]", "value": 2.4, "unit": "nM"}]}
